Reference: PubChem BioAssay AID1963965 (Molecular Pharmacology Branch, DTP, NCI, 2024)

System: 996289-038-R-J1-PDC spheroid viability
Assay: Anticancer human tumor 996289-038-R-J1-PDC patient-derived colon adenocarcinoma cell line growth inhibition [PI3K]
Settings: spheroids with HUVEC and MSC; for IC50: curve of first compound; for viability, T/C: stronger effect = lower value
Summary of the method: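 Viability of mixed-cell spheroids was determined after exposure to pairwise combinations, one partner being inavolisib, alpelisib, duvelisib or copanlisib. Highest tested concentration matched clinical Cmax where known and 10 microM where not, descending in half-log steps.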

[1] = second compound 0.0316 µM, first compound 0.0316 µM
[2] = second compound 0.0316 µM, first compound 0.1 µM
[3] = second compound 0.1 µM, first compound 0.0316 µM
[4] = second compound 0.1 µM, first compound 0.1 µM
[5] = second compound 0.316 µM, first compound 0.0316 µM
[6] = second compound 0.316 µM, first compound 0.1 µM
[7] = second compound 1 µM, first compound 0.0316 µM
[8] = second compound 1 µM, first compound 0.1 µM
[9] = second compound 3.16 µM, first compound 0.0316 µM
[10] = second compound 3.16 µM, first compound 0.1 µM
[11] = second compound 10 µM, first compound 0.0316 µM
[12] = second compound 10 µM, first compound 0.1 µM
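Further: spheroids exposed to compounds for seven days before viability read.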
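Wherever viability, T/C is given: luminescence used as a proxy for viable cell amount; percent viability relative to DMSO vehicle control as 100%.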

With `CC(C)n1nc(-c2ccc3oc(N)nc3c2)c2c(N)ncnc21` + CC(Nc1ncnc2nc[nH]c12)c1cc2cccc(Cl)c2c(=O)n1-c1ccccc1 the IC50 (second compound 0.0316 µM) was 0.0801 µM, the IC50 (second compound 0.1 µM) was 0.062 µM and the IC50 (second compound 0.316 µM) was 0.0649 µM. The IC50 (second compound 1 µM) was 0.058 µM, the IC50 (second compound 3.16 µM) was 0.0717 µM and the IC50 (second compound 10 µM) was 0.0629 µM. The viability, T/C (second compound 0.0316 µM, first compound 0.000316 µM) was 107%, the viability, T/C (second compound 0.0316 µM, first compound 0.001 µM) was 88.6% and the viability, T/C (second compound 0.0316 µM, first compound 0.00316 µM) was 97.6%. For the same compound, the viability, T/C (second compound 0.0316 µM, first compound 0.01 µM) was 86.7%, the viability, T/C [1] was 82.7% and the viability, T/C [2] was 42.3%. The viability, T/C (second compound 0.1 µM, first compound 0.000316 µM) was 124%, the viability, T/C (second compound 0.1 µM, first compound 0.001 µM) was 96.5% and the viability, T/C (second compound 0.1 µM, first compound 0.00316 µM) was 96.1%. For the same compound, the viability, T/C (second compound 0.1 µM, first compound 0.01 µM) was 95.8%, the viability, T/C [3] was 70.8% and the viability, T/C [4] was 34.5%. It also gave a viability, T/C (second compound 0.316 µM, first compound 0.000316 µM) of 105%, a viability, T/C (second compound 0.316 µM, first compound 0.001 µM) of 87.4% and a viability, T/C (second compound 0.316 µM, first compound 0.00316 µM) of 84.6%. For the same compound, the viability, T/C (second compound 0.316 µM, first compound 0.01 µM) was 87.3%, the viability, T/C [5] was 73.9% and the viability, T/C [6] was 36.2%. The viability, T/C (second compound 1 µM, first compound 0.000316 µM) was 98.4%, the viability, T/C (second compound 1 µM, first compound 0.001 µM) was 97.9% and the viability, T/C (second compound 1 µM, first compound 0.00316 µM) was 85.9%. It also gave a viability, T/C (second compound 1 µM, first compound 0.01 µM) of 84.6%, a viability, T/C [7] of 65.7% and a viability, T/C [8] of 35.9%. For the same compound, the viability, T/C (second compound 3.16 µM, first compound 0.000316 µM) was 87.5%, the viability, T/C (second compound 3.16 µM, first compound 0.001 µM) was 87.5% and the viability, T/C (second compound 3.16 µM, first compound 0.00316 µM) was 86.2%. It also gave a viability, T/C (second compound 3.16 µM, first compound 0.01 µM) of 89.5%, a viability, T/C [9] of 76.8% and a viability, T/C [10] of 38.9%. The viability, T/C (second compound 10 µM, first compound 0.000316 µM) was 85%, the viability, T/C (second compound 10 µM, first compound 0.001 µM) was 82% and the viability, T/C (second compound 10 µM, first compound 0.00316 µM) was 82.9%. For the same compound, the viability, T/C (second compound 10 µM, first compound 0.01 µM) was 79%, the viability, T/C [11] was 68.8% and the viability, T/C [12] was 37.2%.

`CCCS(=O)(=O)Nc1ccc(F)c(C(=O)c2c[nH]c3ncc(-c4ccc(Cl)cc4)cc23)c1F` + CC(Nc1ncnc2nc[nH]c12)c1cc2cccc(Cl)c2c(=O)n1-c1ccccc1 showed an IC50 (second compound 0.0316 µM) of 6.51 µM, an IC50 (second compound 0.1 µM) of 6.87 µM and an IC50 (second compound 0.316 µM) of 6.7 µM. For the same compound, the IC50 (second compound 1 µM) was 6.63 µM, the IC50 (second compound 3.16 µM) was 6.55 µM and the IC50 (second compound 10 µM) was 5.93 µM. The viability, T/C [1] was 99.5%, the viability, T/C [2] was 98.8% and the viability, T/C (second compound 0.0316 µM, first compound 0.316 µM) was 103%. For the same compound, the viability, T/C (second compound 0.0316 µM, first compound 1 µM) was 97.1%, the viability, T/C (second compound 0.0316 µM, first compound 3.16 µM) was 98.6% and the viability, T/C (second compound 0.0316 µM, first compound 10 µM) was 21.1%. The viability, T/C [3] was 103%, the viability, T/C [4] was 96.8% and the viability, T/C (second compound 0.1 µM, first compound 0.316 µM) was 119%. The viability, T/C (second compound 0.1 µM, first compound 1 µM) was 107%, the viability, T/C (second compound 0.1 µM, first compound 3.16 µM) was 111% and the viability, T/C (second compound 0.1 µM, first compound 10 µM) was 22.2%. For the same compound, the viability, T/C [5] was 89.8%, the viability, T/C [6] was 103% and the viability, T/C (second compound 0.316 µM, first compound 0.316 µM) was 107%. It also gave a viability, T/C (second compound 0.316 µM, first compound 1 µM) of 106%, a viability, T/C (second compound 0.316 µM, first compound 3.16 µM) of 99.7% and a viability, T/C (second compound 0.316 µM, first compound 10 µM) of 23.5%. For the same compound, the viability, T/C [7] was 105%, the viability, T/C [8] was 98.2% and the viability, T/C (second compound 1 µM, first compound 0.316 µM) was 96.9%. For the same compound, the viability, T/C (second compound 1 µM, first compound 1 µM) was 89%, the viability, T/C (second compound 1 µM, first compound 3.16 µM) was 102% and the viability, T/C (second compound 1 µM, first compound 10 µM) was 23.2%. The viability, T/C [9] was 94.9%, the viability, T/C [10] was 95.4% and the viability, T/C (second compound 3.16 µM, first compound 0.316 µM) was 93.2%. For the same compound, the viability, T/C (second compound 3.16 µM, first compound 1 µM) was 85.6%, the viability, T/C (second compound 3.16 µM, first compound 3.16 µM) was 101% and the viability, T/C (second compound 3.16 µM, first compound 10 µM) was 24.2%. It also gave a viability, T/C [11] of 87%, a viability, T/C [12] of 87.8% and a viability, T/C (second compound 10 µM, first compound 0.316 µM) of 88.3%. The viability, T/C (second compound 10 µM, first compound 1 µM) was 82.5%, the viability, T/C (second compound 10 µM, first compound 3.16 µM) was 99.6% and the viability, T/C (second compound 10 µM, first compound 10 µM) was 17.5%.
